Literature values, collected in patent publication US20230037437A1, “FORMULATIONS FOR USE IN THE TREATMENT OF DIFFERENT TYPES OF ADDICTIONS AND DEPENDENCE ON ADDICTIVE SUBSTANCES” (UNIBIOLABS INTERNACIONAL S.A DE C.V, priority 2019, published 2023).

Key:
[1] = target: dopamine transporter (DAT) (Homo sapiens, UniProt Q01959); conditions: relative to cocaine
serotonin transporter = serotonin transporter (Homo sapiens, UniProt P31645)
IKr channel (hERG) = IKr channel (hERG) (Homo sapiens, UniProt Q12809)
cocaine abusers = conditions: patients taking magnesium versus placebo

Sequence of dopamine transporter (DAT) (Q01959 whole entry, species assumed): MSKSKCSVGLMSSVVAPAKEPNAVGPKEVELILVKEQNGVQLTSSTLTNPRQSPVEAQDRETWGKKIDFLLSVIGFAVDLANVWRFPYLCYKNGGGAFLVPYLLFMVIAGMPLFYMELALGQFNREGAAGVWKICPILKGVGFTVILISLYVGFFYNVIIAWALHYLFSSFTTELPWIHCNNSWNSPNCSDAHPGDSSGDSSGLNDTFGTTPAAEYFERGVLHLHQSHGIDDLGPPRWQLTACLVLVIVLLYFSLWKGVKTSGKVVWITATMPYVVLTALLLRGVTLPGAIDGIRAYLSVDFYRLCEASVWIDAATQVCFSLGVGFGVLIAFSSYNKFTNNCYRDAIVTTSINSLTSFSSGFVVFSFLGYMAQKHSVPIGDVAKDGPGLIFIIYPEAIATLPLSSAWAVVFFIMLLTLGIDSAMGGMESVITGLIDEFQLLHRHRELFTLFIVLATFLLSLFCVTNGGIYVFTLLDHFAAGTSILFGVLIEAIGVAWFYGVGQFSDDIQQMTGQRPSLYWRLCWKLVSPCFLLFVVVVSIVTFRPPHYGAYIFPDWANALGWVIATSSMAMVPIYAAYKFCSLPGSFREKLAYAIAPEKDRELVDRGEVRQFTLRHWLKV
Sequence of IKr channel (hERG) (Q12809 whole entry): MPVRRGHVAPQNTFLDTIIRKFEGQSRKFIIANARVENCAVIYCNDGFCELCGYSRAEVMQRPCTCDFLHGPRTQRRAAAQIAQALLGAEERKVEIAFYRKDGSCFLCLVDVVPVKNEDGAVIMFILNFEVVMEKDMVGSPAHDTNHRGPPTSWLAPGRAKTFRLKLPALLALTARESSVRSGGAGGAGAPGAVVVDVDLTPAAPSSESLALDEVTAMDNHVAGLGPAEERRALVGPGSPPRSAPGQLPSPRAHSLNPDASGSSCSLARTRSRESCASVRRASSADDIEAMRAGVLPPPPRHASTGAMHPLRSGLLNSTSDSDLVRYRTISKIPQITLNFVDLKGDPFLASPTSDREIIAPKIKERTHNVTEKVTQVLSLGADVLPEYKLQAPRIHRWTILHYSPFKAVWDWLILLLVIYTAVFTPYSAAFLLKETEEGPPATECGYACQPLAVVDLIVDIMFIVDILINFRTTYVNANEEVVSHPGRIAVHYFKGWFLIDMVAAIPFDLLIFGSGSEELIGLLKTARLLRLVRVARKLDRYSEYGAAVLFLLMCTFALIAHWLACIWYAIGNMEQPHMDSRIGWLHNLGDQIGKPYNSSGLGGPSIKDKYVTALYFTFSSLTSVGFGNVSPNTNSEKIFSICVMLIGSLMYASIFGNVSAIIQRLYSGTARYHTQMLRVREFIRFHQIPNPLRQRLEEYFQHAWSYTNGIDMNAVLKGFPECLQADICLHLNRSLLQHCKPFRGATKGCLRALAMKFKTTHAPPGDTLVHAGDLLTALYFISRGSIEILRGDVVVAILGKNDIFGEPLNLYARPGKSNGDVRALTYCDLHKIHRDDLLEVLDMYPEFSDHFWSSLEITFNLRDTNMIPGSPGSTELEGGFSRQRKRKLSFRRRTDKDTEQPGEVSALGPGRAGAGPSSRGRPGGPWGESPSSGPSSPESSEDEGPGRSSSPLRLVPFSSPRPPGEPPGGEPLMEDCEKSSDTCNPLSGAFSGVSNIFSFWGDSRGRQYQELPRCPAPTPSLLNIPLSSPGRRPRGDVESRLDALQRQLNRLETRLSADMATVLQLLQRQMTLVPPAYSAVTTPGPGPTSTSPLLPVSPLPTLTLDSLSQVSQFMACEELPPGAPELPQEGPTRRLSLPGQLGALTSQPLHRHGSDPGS
Sequence of serotonin transporter (P31645 whole entry): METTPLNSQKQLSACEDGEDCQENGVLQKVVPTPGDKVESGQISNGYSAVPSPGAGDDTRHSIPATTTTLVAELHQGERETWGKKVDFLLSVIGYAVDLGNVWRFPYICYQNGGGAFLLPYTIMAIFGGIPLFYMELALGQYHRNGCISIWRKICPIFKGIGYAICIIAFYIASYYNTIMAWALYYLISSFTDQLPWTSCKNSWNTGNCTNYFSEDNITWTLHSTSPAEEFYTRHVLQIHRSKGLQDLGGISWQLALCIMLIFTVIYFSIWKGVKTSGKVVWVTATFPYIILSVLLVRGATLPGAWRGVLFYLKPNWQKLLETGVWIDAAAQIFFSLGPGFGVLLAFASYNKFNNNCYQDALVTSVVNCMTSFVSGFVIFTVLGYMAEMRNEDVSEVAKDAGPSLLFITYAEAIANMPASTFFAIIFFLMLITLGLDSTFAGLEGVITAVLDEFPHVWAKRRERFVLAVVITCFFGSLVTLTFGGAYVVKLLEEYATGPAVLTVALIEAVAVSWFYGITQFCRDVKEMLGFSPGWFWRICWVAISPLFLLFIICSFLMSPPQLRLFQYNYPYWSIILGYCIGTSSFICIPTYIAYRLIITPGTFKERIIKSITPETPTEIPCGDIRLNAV

Compound: Fc1ccc(C(OCCN2CCN(CCCc3ccccc3)CC2)c2ccc(F)cc2)cc1 [GBR 12909, Vanoxerine]
- binding to the target site on the dopamine transporter (DAT), stronger than cocaine [1]: approximately 50 times
- affinity to the serotonin transporter (serotonin transporter): nanomolar affinity
- IKr channel (hERG) block (IKr channel (hERG)): potent IKr channel blocker

Compound: [Mg+2] [magnesium]
- cocaine craving scores, lower than in patients taking placebo (cocaine abusers): 78%
